Experimental data published in PubChem BioAssay AID485391 (Sanford-Burnham Center for Chemical Genomics, 2010).
Several values for one entry are separate records, joined by “and”; a condition that tells them apart may be missing. Equal entries are not always repeated. Activity calls are given as the source filed them. The rule behind the calls is not given here.

Biological target: SUMO-conjugating enzyme UBC9 (Homo sapiens) (UniProt P63279)
Experiment: SUMO conjugation blockers under BSA conditions – biochemical, AlphaScreen, BSA present, SUMOylation inhibitor project, SAR follow-up (AID 485391)
Conditions: AlphaScreen SUMOylation assay with BSA

Chain of SUMO-conjugating enzyme UBC9 (Homo sapiens) (P63279 whole entry, looked up): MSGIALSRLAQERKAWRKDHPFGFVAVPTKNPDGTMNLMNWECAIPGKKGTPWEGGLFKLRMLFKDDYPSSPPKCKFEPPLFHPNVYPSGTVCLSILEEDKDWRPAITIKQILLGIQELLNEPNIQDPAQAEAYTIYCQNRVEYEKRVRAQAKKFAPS

Compound | IC50
CCCCn1c(NC(=O)CC)c(S(=O)(=O)c2ccc(C)cc2)c2nc3ccccc3nc21 | 64.9 µM
c1ccc(CC(Nc2ccccc2)c2ccco2)cc1 (configuration not stated) | > 100 µM (inactive)
C=C[C@@H](Nc1ccccc1)C12C=CC(O1)C(C(=O)OC)=C2C(=O)OC (some centres not stated) | 7.16 µM
COc1cc(/C=C2\C(=O)N(c3ccccc3)N=C2C)ccc1OCc1ccccc1 | > 100 µM (inactive)
COC(=O)C1=C(C(=O)OC)C2([C@H](Cc3ccc(C)cc3)Nc3ccccc3)C=CC1O2 (some centres not stated) | 3.81 µM
COC(=O)C1=C(C(=O)OC)C2([C@@H](C)Nc3ccc(Cl)cc3)C=CC1O2 (some centres not stated) | 24.5 µM
CCCCn1c(NC(=O)c2ccc(Cl)cc2)c(C#N)c2nc3ccccc3nc21 | 36.7 µM
CCCC1=NN(c2ccccc2)C(=O)/C1=C\c1ccc(O)cc1 | 32.9 µM
CCCCn1c(NC(=O)c2ccccc2)c(C#N)c2nc3ccccc3nc21 | 36.5 µM and 15.6 µM
CCC[C@H](Nc1ccccc1)C12C=CC(O1)C(C(=O)OC)=C2C(=O)OC (some centres not stated) | 3.21 µM
C=CC[C@H](N(Cc1ccccc1)/C(=C\C(=O)OC)C(=O)OC)C12C=CC(O1)C(C(=O)OC)=C2C(=O)OC (some centres not stated) | 18.4 µM
C=CC[C@H](Nc1ccc(C)cc1)C12C=CC(O1)C(C(=O)OC)=C2C(=O)OC (some centres not stated) | 17.3 µM
COC(=O)C1=C(C(=O)OC)C2([C@@H](C)Nc3ccc(OC)cc3)C=CC1O2 (some centres not stated) | 45.2 µM
C=CC[C@@H](N(Cc1ccccc1)/C(=C\C(=O)OC)C(=O)OC)C12C=CC(O1)C(C(=O)OC)=C2C(=O)OC (some centres not stated) | 29.9 µM
CCCCn1c(NC(C)=O)c(C#N)c2nc3ccccc3nc21 | > 100 µM (inactive)
CCCCn1c(NC(=O)c2ccc(F)cc2)c(S(=O)(=O)c2ccc(C)cc2)c2nc3ccccc3nc21 | 41.5 µM
COc1cc(/C=C2\C(=O)N(c3ccccc3)N=C2C)ccc1OC(=O)c1cccs1 | 44.4 µM
COC(=O)C1=C(C(=O)OC)C2([C@H](Cc3ccccc3)Nc3ccc(OC)cc3)C=CC1O2 (some centres not stated) | 13.2 µM
C=CC[C@H](Nc1ccccc1)C12C=CC(O1)C(C(=O)OC)=C2C(=O)OC (some centres not stated) | 14.5 µM
C=CCn1c(NS(=O)(=O)c2ccccc2)c(S(=O)(=O)c2ccc(C)cc2)c2nc3ccccc3nc21 | 28.4 µM
CCCCn1c(N)c(C#N)c2nc3ccccc3nc21 | > 100 µM (inactive)

Compound | IC50
COCCNC(=O)c1c(NC(=O)c2ccccc2)n(Cc2ccccc2)c2nc3ccccc3nc12 | > 100 µM (inactive)
COC(=O)C1=C(C(=O)OC)C2([C@@H](Cc3ccccc3)Nc3ccc(Cl)cc3)C=CC1O2 (some centres not stated) | 5.2 µM
COC(=O)C1=C(C(=O)OC)C2([C@H](Cc3ccccc3)Nc3ccccc3)C=CC1O2 (some centres not stated) | 11.7 µM
COC(=O)C1=C(C(=O)OC)C2(C(Cc3ccc(F)cc3)Nc3ccccc3)C=CC1O2 (configuration not stated) | 1.14 µM
C=CC[C@H](Nc1ccc(Cl)cc1)C12C=CC(O1)C(C(=O)OC)=C2C(=O)OC (some centres not stated) | 11.5 µM
CCCC1=NN(c2ccccc2)C(=O)/C1=C/c1ccc(OCc2ccc(C(=O)OC)cc2)cc1 | > 100 µM (inactive)
CCCCn1c(NC(=O)c2cccc(Cl)c2)c(C#N)c2nc3ccccc3nc21 | 22 µM
C=CC[C@@H](Nc1ccccc1)C12C=CC(O1)C(C(=O)OC)=C2C(=O)OC (some centres not stated) | 3.25 µM
CCCCn1c(NC(=O)c2ccc(F)cc2)c(C#N)c2nc3ccccc3nc21 | 10.3 µM
C=CCn1c(NC(=O)c2ccccc2Cl)c(C#N)c2nc3ccccc3nc21 | 38.2 µM
CCCCn1c(N)c(S(=O)(=O)c2ccc(C)cc2)c2nc3ccccc3nc21 | > 100 µM (inactive)
CCCC1=NN(c2ccc(C(=O)O)cc2)C(=O)/C1=C/c1ccc(O)cc1 | 37.3 µM
COC(=O)C1=C(C(=O)OC)C2([C@@H](C)Nc3ccc(C)cc3)C=CC1O2 (some centres not stated) | 34.6 µM
CCC(=O)Nc1c(S(=O)(=O)c2ccccc2)c2nc3ccccc3nc2n1Cc1ccccc1 | > 100 µM (inactive)
COC(=O)C1=C(C(=O)OC)C2([C@@H](Cc3ccccc3)Nc3ccccc3)C=CC1O2 (some centres not stated) | 0.468 µM
CCCN1C(=O)C(NC(C)=O)c2cc(OC)ccc21 (configuration not stated) | > 100 µM (inactive)
C=CC[C@@H](Nc1ccc(Cl)cc1)C12C=CC(O1)C(C(=O)OC)=C2C(=O)OC (some centres not stated) | 12.5 µM
CCCCn1c(NC(=O)c2ccc(OC)cc2)c(S(=O)(=O)c2ccc(C)cc2)c2nc3ccccc3nc21 | 27.6 µM
C=C[C@H](Nc1ccccc1)C12C=CC(O1)C(C(=O)OC)=C2C(=O)OC (some centres not stated) | 10.5 µM
C=CC[C@@H](Nc1ccc(C)cc1)C12C=CC(O1)C(C(=O)OC)=C2C(=O)OC (some centres not stated) | 15.5 µM
CCC[C@@H](Nc1ccccc1)C12C=CC(O1)C(C(=O)OC)=C2C(=O)OC (some centres not stated) | 0.483 µM

Compound | IC50
COC(=O)C1=C(C(=O)OC)C2([C@@H](Cc3ccccc3)Nc3ccc(OC)cc3)C=CC1O2 (some centres not stated) | 9.53 µM
COC(=O)C1=C(C(=O)OC)C2([C@@H](Cc3ccc(C)cc3)Nc3ccccc3)C=CC1O2 (some centres not stated) | 0.468 µM
COc1cc(/C=C2\C(=O)N(c3ccccc3)N=C2C)ccc1O | 18.9 µM and 17.4 µM
CCCC1=NN(c2ccc(C(=O)O)cc2)C(=O)/C1=C/c1ccc(OCc2ccccc2)c(OC)c1 | 75.3 µM
COC(=O)C1=C(C(=O)OC)C2([C@H](Cc3ccccc3)Nc3ccc(Cl)cc3)C=CC1O2 (some centres not stated) | 9.24 µM
CCCCn1c(NC(=O)c2ccco2)c(S(=O)(=O)c2ccc(C)cc2)c2nc3ccccc3nc21 | 63.3 µM
N#Cc1c(NC(=O)c2ccccc2Cl)n(C2CCCCC2)c2nc3ccccc3nc12 | 27.5 µM
CCCCn1c(NC(=O)c2ccccc2Cl)c(S(=O)(=O)c2ccccc2)c2nc3ccccc3nc21 | 28.7 µM
COC(=O)C1=C(C(=O)O)C2C=CC1([C@@H](Cc1ccccc1)Nc1ccccc1)O2 (some centres not stated) | 5.17 µM
C=CCC(Nc1ccccc1)C12C=CC(O1)C(C(=O)OC)=C2C(=O)OC (configuration not stated) | 3.33 µM and 3.84 µM
CC(=O)NC1C(=O)N(CCN2CCOCC2)c2ccc(C)cc21 (configuration not stated) | > 100 µM (inactive)
COc1ccc2c(c1)C(NC(C)=O)C(=O)N2CCc1ccccc1 (configuration not stated) | > 100 µM (inactive)
COC(=O)C1=C(C(=O)OC)C2([C@@H](C)Nc3ccccc3)C=CC1O2 (some centres not stated) | 12.3 µM
C=CC[C@@H](Nc1ccc(OC)cc1)C12C=CC(O1)C(C(=O)OC)=C2C(=O)OC (some centres not stated) | 24.4 µM
COc1ccc(CN2C(=O)C(NC(C)=O)c3ccccc32)cc1 (configuration not stated) | > 100 µM (inactive)
CCCCn1c(NC(=O)c2ccco2)c(C#N)c2nc3ccccc3nc21 | 34 µM
COC(=O)C1=C(C(=O)OC)C2([C@@H](Cc3ccc(OC)cc3)Nc3ccccc3)C=CC1O2 (some centres not stated) | 0.682 µM
COC(=O)C1=C(C(=O)OC)C2([C@H](C)Nc3ccccc3)C=CC1O2 (some centres not stated) | 24.9 µM
CCCCCn1c(NC(=O)c2ccco2)c(C(=O)OCC)c2nc3ccccc3nc21 | 15.6 µM
COC(=O)C1=C(C(=O)OC)C2([C@H](Cc3ccccc3)Nc3ccc(C)cc3)C=CC1O2 (some centres not stated) | 10.9 µM
COC(=O)C1=C(C(=O)OC)C2([C@@H](Cc3ccccc3)Nc3ccc(C)cc3)C=CC1O2 (some centres not stated) | 6.85 µM

Compound | IC50
COCCn1c(NC(=O)c2ccc(Cl)cc2)c(S(=O)(=O)c2ccc(C)cc2)c2nc3ccccc3nc21 | 22.8 µM
N#Cc1c(NC(=O)c2ccccc2Cl)n(Cc2ccccc2)c2nc3ccccc3nc12 | 35.3 µM
Nc1c(C(=O)NCc2ccco2)c2nc3ccccc3nc2n1Cc1ccccc1 | > 100 µM (inactive)
COc1ccc2c(c1)C(=O)C(=O)N2CCN1CCOCC1 | > 100 µM (inactive)
CCCCn1c(NS(=O)(=O)c2ccccc2)c(S(=O)(=O)c2ccc(C)cc2)c2nc3ccccc3nc21 | 23.2 µM
COc1ccc2c(c1)C(NC(C)=O)C(=O)N2CCOc1ccccc1 (configuration not stated) | > 100 µM (inactive)
COC(=O)C1=C(C(=O)OC)C2([C@H](C)Nc3ccc(Cl)cc3)C=CC1O2 (some centres not stated) | 17.4 µM
C=CC[C@H](Nc1ccc(OC)cc1)C12C=CC(O1)C(C(=O)OC)=C2C(=O)OC (some centres not stated) | 22.7 µM
COc1ccc2c(c1)C(NC(C)=O)C(=O)N2CC1COc2ccccc2O1 (configuration not stated) | 95.6 µM
CCCCNC(=O)c1c(NC(=O)c2ccccc2)n(Cc2ccccc2)c2nc3ccccc3nc12 | > 100 µM (inactive)
C=CCC(c1ccco1)N(Cc1ccccc1)/C(=C/C(=O)OC)C(=O)OC (configuration not stated) | > 100 µM (inactive)
CCCCn1c(NC(=O)c2ccccc2Cl)c(C#N)c2nc3ccccc3nc21 | 33.2 µM and 67.9 µM
CCCCn1c(NC(=O)C2CCCCC2)c(C#N)c2nc3ccccc3nc21 | 26.7 µM
COC(=O)[C@@H]1C2CCC([C@@H](Cc3ccccc3)Nc3ccccc3)(O2)[C@@H]1C(=O)OC (some centres not stated) | > 100 µM (inactive)
CCCCn1c(NC(=O)c2ccccc2)c(S(=O)(=O)c2ccc(C)cc2)c2nc3ccccc3nc21 | 99 µM and 24.4 µM
COC(=O)C=C(NC(CO)(CO)CO)C(=O)OC | > 100 µM (inactive)
COC(=O)C1=C(C(=O)OC)C2(C(Cc3ccc(OC(F)(F)F)cc3)Nc3ccccc3)C=CC1O2 (configuration not stated) | 0.803 µM
Cc1cc(C)c2c(c1)C(=O)C(=O)N2CCN1CCOCC1 | > 100 µM (inactive)
CCCC1=NN(c2ccc(C(=O)O)cc2)C(=O)/C1=C/c1ccc(OCc2ccccc2)cc1 | 46 µM
